Experimental data published in article PMC4750701, “Role of Mitochondrial RNA Polymerase in the Toxicity of Nucleotide Inhibitors of Hepatitis C Virus” (Antimicrobial Agents and Chemotherapy, 2016).
Blank lines part the entries; values can stand above or below the compound they belong to.

Key:
[1] = molecular target: T1, RNA PolIII (Homo sapiens, UniProt O14802+Q9NW08); experiment: RNA PolIII inhibition assay; type: biochemical; details: competing NTP 100 μM CTP and GTP, 500 μM ATP; read-out: Mean IC50 ± SD for RNA PolIII
T1 construct: complexes were isolated from rat NSN1 cells and HeLa cells, respectively; made in house; host or cells: HeLa cells expressing a FLAG-tagged Pol III subunit
From the text: (§1) Human DNA polymerase alpha, isolated from HeLa cell extracts, was from CHIMERx (Madison, WI). Recombinant human DNA polymerase beta, expressed in E. coli, was a gift from Zucai Suo at The Ohio State University. Recombinant human DNA polymerase gamma (including both the large subunit and the small subunit) was cloned, expressed, and purified from insect cells by Gilead Sciences (Foster City, CA) ([13]). RNA PolII was purchased as part of the HeLaScribe nuclear extract in vitro transcription system kit from Promega (Madison, WI). The recombinant human PolRMT and the transcription factors mitochondrial transcription factor A (mtTFA) and B2 (mtTFB2) were purchased from Enzymax (Lexington, KY). FLAG epitope-tagged RNA PolI and PolIII complexes were isolated from rat NSN1 cells and HeLa cells, respectively ([17], [18]). The inhibition of DNA polymerases alpha, beta, and gamma, PolRMT, and PolII and the rate of single-nucleotide incorporation by PolRMT have been described previously in detail ([12], [13], [19]). Inhibition of RNA PolI and PolIII was studied using published methods ([20], [21]). All concentrations were final unless noted otherwise. For the RNA PolI inhibition assay, a reaction mixture containing 50 mM HEPES (pH 7.9), 20% glycerol, 100 mM KCl, 1 mM dithiothreitol (DTT), 50 μg/ml calf thymus DNA, 4 mM MgCl2, 5 or 80 μM UTP (0.25 μl of [5,6-^3H]UTP, >25 Ci/mmol; PerkinElmer), 1 mM noncompeting NTP, competing NTP (5 μM for GTP, CTP, and UTP and 25 μM for ATP), and various concentrations (0 to 500 μM) of NTP analogs was preincubated at 30°C for 5 min. […] After incubation at 30°C for 20 min to 1 h, the reactions were terminated by pipetting the mixtures onto DEAE-cellulose discs (DE81; Whatman), and the products analyzed as described previously ([20], [21]).
The RNA PolIII inhibition assay was conducted in a similar manner, except that the concentrations of the competing NTP were modified to 100 μM for CTP and GTP and 500 μM for ATP to compensate for the low assay signal at lower NTP concentrations.

[2] = molecular target: T2, RNA PolI (Rattus norvegicus, UniProt O54889); experiment: RNA PolI inhibition assay; type: biochemical; details: NTP analogs 0 to 500 μM; read-out: Mean IC50 ± SD for RNA PolI
T2 construct: complexes were isolated from rat NSN1 cells and HeLa cells, respectively; made in house; host or cells: rat NSN1 cells expressing a FLAG-tagged Pol I subunit
From the text: as §1

[3] = test system: HCV replicon; parameters: method as in PMID 21357300, PMID 21060109; details: cited from earlier work
[4] = Cytotoxicity in primary rat neonatal cardiomyocytes, 5 days; type: cell-based; details: Sprague Dawley, 5-day treatment, read-out: CC50 (mean ± standard deviation) in primary rat cardiomyocytes
[5] = test system: mitochondrial respiration in primary rat cardiomyocytes; experiment: Spare respiratory capacity in primary rat cardiomyocytes; details: primary rat cardiomyocytes, 3-day treatments
[6] = as above; details: Sprague Dawley, rat, primary rat neonatal cardiomyocytes
[7] = test system: PC-3 cells; experiment: Active triphosphate metabolite in PC-3 cells (LC-MS/MS); type: in vitro ADME, human; details: 10 μM incubation, maximal concentration observed after 48 h during a 5-day incubation
Experimental: The amount of nucleoside triphosphate was determined from three independent studies by ion-pairing liquid chromatography-tandem mass spectrometry (LC-MS/MS) as previously described ([16]). All compounds were incubated with the cells at 10 μM, except for BMS-986094 and NM107, which were incubated at 0.1 and 1 μM, respectively, due to the cytotoxicity observed at higher concentrations. Triphosphate concentrations for BMS-986094 and 2′CMeC were applied at doses normalized to the concentrations anticipated after a 10 μM incubation for comparison with the other NI. The reported TP levels are the maximal concentrations observed after 48 h during a 5-day incubation.

[8] = Chronic toxicology studies in rats; type: in vivo; details: up to 39 weeks
[9] = test system: Quiescent PBMCs; parameters: method as in PMID 24419349; details: 5 days; read-out: Mean CC50 ± SD in PBMCs Quiescent; cited from earlier work
[10] = Chronic toxicology studies in dogs; type: in vivo; details: up to 39 weeks

T2 sequence (O54889 whole entry): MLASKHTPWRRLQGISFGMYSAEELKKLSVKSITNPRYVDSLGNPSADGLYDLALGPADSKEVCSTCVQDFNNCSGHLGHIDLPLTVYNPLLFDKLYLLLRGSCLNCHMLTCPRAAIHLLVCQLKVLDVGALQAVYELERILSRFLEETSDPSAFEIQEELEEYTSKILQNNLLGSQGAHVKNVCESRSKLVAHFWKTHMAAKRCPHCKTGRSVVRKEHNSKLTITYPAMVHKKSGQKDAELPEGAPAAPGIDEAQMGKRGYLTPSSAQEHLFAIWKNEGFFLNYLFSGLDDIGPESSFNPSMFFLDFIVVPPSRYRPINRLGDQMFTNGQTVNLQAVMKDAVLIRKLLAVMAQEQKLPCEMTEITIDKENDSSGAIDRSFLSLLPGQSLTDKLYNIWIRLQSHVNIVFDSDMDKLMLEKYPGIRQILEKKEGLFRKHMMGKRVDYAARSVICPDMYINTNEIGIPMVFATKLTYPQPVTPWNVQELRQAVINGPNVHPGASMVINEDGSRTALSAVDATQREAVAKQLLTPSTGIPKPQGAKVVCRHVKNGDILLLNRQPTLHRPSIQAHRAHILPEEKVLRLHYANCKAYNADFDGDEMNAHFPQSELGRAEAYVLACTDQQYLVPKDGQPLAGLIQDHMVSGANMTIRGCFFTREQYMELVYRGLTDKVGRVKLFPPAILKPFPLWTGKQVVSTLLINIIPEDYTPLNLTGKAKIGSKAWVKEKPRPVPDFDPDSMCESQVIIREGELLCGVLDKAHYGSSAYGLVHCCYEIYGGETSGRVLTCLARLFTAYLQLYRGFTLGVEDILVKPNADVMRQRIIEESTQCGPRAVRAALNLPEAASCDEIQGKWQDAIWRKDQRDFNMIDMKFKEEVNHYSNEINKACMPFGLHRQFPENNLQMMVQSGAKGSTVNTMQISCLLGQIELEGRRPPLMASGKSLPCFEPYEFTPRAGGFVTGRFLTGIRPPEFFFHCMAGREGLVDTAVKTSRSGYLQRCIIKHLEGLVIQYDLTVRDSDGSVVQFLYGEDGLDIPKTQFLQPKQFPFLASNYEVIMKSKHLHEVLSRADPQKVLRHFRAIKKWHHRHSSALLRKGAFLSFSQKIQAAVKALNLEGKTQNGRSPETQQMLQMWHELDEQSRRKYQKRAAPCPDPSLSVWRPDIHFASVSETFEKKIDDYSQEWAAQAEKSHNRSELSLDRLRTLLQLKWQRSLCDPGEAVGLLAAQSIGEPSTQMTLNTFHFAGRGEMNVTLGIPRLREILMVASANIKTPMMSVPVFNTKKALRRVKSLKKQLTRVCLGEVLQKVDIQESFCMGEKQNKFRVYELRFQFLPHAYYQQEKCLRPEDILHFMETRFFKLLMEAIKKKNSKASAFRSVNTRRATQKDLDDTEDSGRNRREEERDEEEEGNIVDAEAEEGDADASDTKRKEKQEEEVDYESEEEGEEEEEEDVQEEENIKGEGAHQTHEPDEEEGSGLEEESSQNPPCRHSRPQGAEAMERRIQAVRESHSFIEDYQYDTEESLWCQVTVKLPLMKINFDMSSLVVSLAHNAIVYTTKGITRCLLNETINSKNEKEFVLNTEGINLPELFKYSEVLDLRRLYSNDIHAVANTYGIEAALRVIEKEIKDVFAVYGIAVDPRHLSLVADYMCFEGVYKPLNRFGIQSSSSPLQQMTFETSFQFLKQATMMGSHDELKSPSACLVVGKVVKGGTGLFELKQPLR

IC50 [1]: > 500 µM
IC50 [2]: 300 ± 60 µM
Compound: C[C@@]1(O)[C@H](O)[C@@H](COP(=O)(O)OP(=O)(O)OP(=O)(O)O)O[C@H]1n1cnc2c(=O)[nH]c(N)nc21 [2′CMeGTP]

Compound: COc1nc(N)nc2c1ncn2[C@@H]1O[C@H](COP(=O)(N[C@@H](C)C(=O)OCC(C)(C)C)Oc2cccc3ccccc23)[C@@H](O)[C@@]1(C)O (stereo partly shown) [BMS-986094]
fold more potent than IDX184 against the HCV replicon [3]: 30- to 60 fold
CC50 at 5 days [4]: 0.68 ± 0.32 µM
selectivity of effect on spare respiratory capacity versus DNA and ATP levels [5]: selective inhibition of mitochondrial respiration
CC50 at 3 days [6]: 0.43 ± 0.14 µM

Compound: CC(C)OC(=O)[C@H](C)N[P@](=O)(OC[C@H]1O[C@@](C#N)(c2ccc3c(N)ncnn23)[C@](C)(O)[C@@H]1OC(=O)C(C)C)Oc1ccccc1 [GS-6620]
Mean TP concn ± SD [7]: BLQ
effects during chronic toxicology studies [8]: did not show
CC50 [9]: > 100 µM
effects during chronic toxicology studies [10]: did not show
